According to ChEMBL document CHEMBL1275576, “In vitro activity of tomopenem (CS-023/RO4908463) against anaerobic bacteria” (Antimicrob Agents Chemother, 2009):

Legend:
[1] = Antimicrobial activity against Parabacteroides distasonis ATCC 8503 by agar dilution method in presence of 5% laked sheep blood; type: functional
Bacteroides ovatus = experiment: Antimicrobial activity against Bacteroides ovatus ATCC 8483 by agar dilution method in presence of 5% laked sheep blood; type: functional
[2] = test system: Campylobacter ureolyticus; experiment: Antimicrobial activity against Bacteroides ureolyticus NCTC 10941 by agar dilution method in presence of 5% laked sheep blood; type: functional
[3] = test system: Bacteroides heparinolyticus; experiment: Antimicrobial activity against Prevotella heparinolytica ATCC 35895 by agar dilution method in presence of 5% laked sheep blood; type: functional
[4] = test system: Prevotella melaninogenica; experiment: Antimicrobial activity against Prevotella melaninogenica JCM 6325 by agar dilution method in presence of 5% laked sheep blood; type: functional; conditions: ATCC 25845
Hoylesella oralis = experiment: Antimicrobial activity against Prevotella oralis ATCC 33269 by agar dilution method in presence of 5% laked sheep blood; type: functional
Porphyromonas gingivalis [5] = experiment: Antimicrobial activity against Porphyromonas gingivalis ATCC 33277 by agar dilution method in presence of 5% laked sheep blood; type: functional
Fusobacterium nucleatum [6] = experiment: Antimicrobial activity against Fusobacterium nucleatum ATCC 25586 by agar dilution method in presence of 5% laked sheep blood; type: functional
Fusobacterium varium [7] = experiment: Antimicrobial activity against Fusobacterium varium ATCC 8501 by agar dilution method in presence of 5% laked sheep blood; type: functional
[8] = Antimicrobial activity against Desulfovibrio piger DSM 749 by agar dilution method in presence of 5% laked sheep blood; type: functional, Desulfovibrio piger ATCC 29098
[9] = Antimicrobial activity against Veillonella dispar ATCC 17748 by agar dilution method in presence of 5% laked sheep blood; type: functional
[10] = test system: Bacteroides thetaiotaomicron; experiment: Antimicrobial activity against Bacteroides thetaiotaomicron by agar dilution method in presence of 5% laked sheep blood; type: functional
[11] = test system: Parabacteroides distasonis; experiment: Antimicrobial activity against Parabacteroides distasonis by agar dilution method in presence of 5% laked sheep blood; type: functional
Bacteroides uniformis = experiment: Antimicrobial activity against Bacteroides uniformis by agar dilution method in presence of 5% laked sheep blood; type: functional
Phocaeicola vulgatus = experiment: Antimicrobial activity against Bacteroides vulgatus by agar dilution method in presence of 5% laked sheep blood; type: functional
Bacteroides caccae = experiment: Antimicrobial activity against Bacteroides caccae by agar dilution method in presence of 5% laked sheep blood; type: functional
Bacteroides stercoris = experiment: Antimicrobial activity against Bacteroides stercoris by agar dilution method in presence of 5% laked sheep blood; type: functional
Odoribacter splanchnicus = experiment: Antimicrobial activity against Odoribacter splanchnicus by agar dilution method in presence of 5% laked sheep blood; type: functional
Prevotella sp. = experiment: Antimicrobial activity against Prevotella sp. by agar dilution method in presence of 5% laked sheep blood; type: functional
[12] = test system: Prevotella melaninogenica; experiment: Antimicrobial activity against Prevotella melaninogenica by agar dilution method in presence of 5% laked sheep blood; type: functional
[13] = test system: Porphyromonas asaccharolytica; experiment: Antimicrobial activity against Porphyromonas asaccharolyticus by agar dilution method in presence of 5% laked sheep blood; type: functional
Porphyromonas gingivalis [14] = experiment: Antimicrobial activity against Porphyromonas gingivalis by agar dilution method in presence of 5% laked sheep blood; type: functional
Fusobacterium nucleatum [15] = experiment: Antimicrobial activity against Fusobacterium nucleatum by agar dilution method in presence of 5% laked sheep blood; type: functional
[16] = test system: Fusobacterium necrophorum; experiment: Antimicrobial activity against Fusobacterium necrophorum by agar dilution method in presence of 5% laked sheep blood; type: functional
Fusobacterium varium [17] = experiment: Antimicrobial activity against Fusobacterium varium by agar dilution method in presence of 5% laked sheep blood; type: functional
Fusobacterium sp. = experiment: Antimicrobial activity against Fusobacterium sp. by agar dilution method in presence of 5% laked sheep blood; type: functional
[18] = test system: Desulfovibrio desulfuricans; experiment: Antimicrobial activity against Desulfovibrio desulfuricans by agar dilution method in presence of 5% laked sheep blood; type: functional
Finegoldia magna = experiment: Antimicrobial activity against Finegoldia magna by agar dilution method in presence of 5% laked sheep blood; type: functional
Parvimonas micra = experiment: Antimicrobial activity against Parvimonas micra by agar dilution method in presence of 5% laked sheep blood; type: functional
[19] = test system: Peptostreptococcus anaerobius; experiment: Antimicrobial activity against Peptostreptococcus anaerobius by agar dilution method in presence of 5% laked sheep blood; type: functional
[20] = test system: Peptoniphilus asaccharolyticus; experiment: Antimicrobial activity against Peptoniphilus asaccharolyticus by agar dilution method in presence of 5% laked sheep blood; type: functional
Eubacterium limosum = experiment: Antimicrobial activity against Eubacterium limosum by agar dilution method in presence of 5% laked sheep blood; type: functional
[21] = test system: Peptoniphilus asaccharolyticus; experiment: Antimicrobial activity against Peptoniphilus asaccharolyticus WAL 3218 by agar dilution method in presence of 5% laked sheep blood; type: functional
[22] = test system: Peptostreptococcus anaerobius; experiment: Antimicrobial activity against Peptostreptococcus anaerobius ATCC 27337 by agar dilution method in presence of 5% laked sheep blood; type: functional
Gemella morbillorum = experiment: Antimicrobial activity against Gemella morbillorum ATCC 27824 by agar dilution method in presence of 5% laked sheep blood; type: functional
[23] = test system: Streptococcus intermedius; experiment: Antimicrobial activity against Streptococcus intermedius ATCC 27335 by agar dilution method in presence of 5% laked sheep blood; type: functional
[24] = test system: Enterocloster clostridioformis; experiment: Antimicrobial activity against Clostridium clostridioforme NCTC 11224 by agar dilution method in presence of 5% laked sheep blood; type: functional
Clostridium perfringens = experiment: Antimicrobial activity against Clostridium perfringens ATCC 13124 by agar dilution method in presence of 5% laked sheep blood; type: functional
Thomasclavelia ramosa = experiment: Antimicrobial activity against Clostridium ramosum ATCC 25582 by agar dilution method in presence of 5% laked sheep blood; type: functional
Schaalia odontolytica = experiment: Antimicrobial activity against Actinomyces odontolyticus GAI 91002 by agar dilution method in presence of 5% laked sheep blood; type: functional
[25] = test system: Lactobacillus acidophilus; experiment: Antimicrobial activity against Lactobacillus acidophilus JCM 1132 by agar dilution method in presence of 5% laked sheep blood; type: functional
Lactobacillus brevis = experiment: Antimicrobial activity against Lactobacillus brevis subsp. brevis JCM 1059 by agar dilution method in presence of 5% laked sheep blood; type: functional; conditions: Levilactobacillus brevis
[26] = test system: Lactiplantibacillus plantarum; experiment: Antimicrobial activity against Lactobacillus plantarum JCM 1149 by agar dilution method in presence of 5% laked sheep blood; type: functional
Bacteroides fragilis [27] = experiment: Antimicrobial activity against Bacteroides fragilis ATCC 25285 by agar dilution method in presence of 5% laked sheep blood; type: functional; conditions: NCTC 9343
Bacteroides fragilis [28] = experiment: Antimicrobial activity against Bacteroides fragilis GAI 7955 by agar dilution method in presence of 5% laked sheep blood; type: functional

C[C@@H](O)[C@H]1C(=O)N2C(C(=O)O)=C(S[C@@H]3CN[C@H](C(=O)N(C)C)C3)[C@H](C)[C@H]12 [MEROPENEM]
MIC [1]: 0.125 mg/L | MIC (Bacteroides ovatus): 0.25 mg/L | MIC [2]: ≤ 0.015 mg/L | MIC [3]: 0.06 mg/L | MIC [4]: 0.125 mg/L | MIC (Hoylesella oralis): 0.03 mg/L | MIC (Porphyromonas gingivalis [5]): ≤ 0.015 mg/L | MIC (Fusobacterium nucleatum [6]): 8 mg/L | MIC (Fusobacterium varium [7]): 0.25 mg/L | MIC [8]: 0.03 mg/L | MIC [9]: 0.03 mg/L | MIC50 [10]: 0.5 mg/L | MIC90 [10]: 2 mg/L | MIC50 [11]: 0.25 mg/L | MIC90 [11]: 4 mg/L | MIC50 (Bacteroides uniformis): 0.25 mg/L | MIC90 (Bacteroides uniformis): 4 mg/L | MIC50 (Phocaeicola vulgatus): 0.25 mg/L | MIC90 (Phocaeicola vulgatus): 4 mg/L | MIC50 (Bacteroides caccae): 0.25 mg/L | MIC90 (Bacteroides caccae): 4 mg/L | MIC50 (Bacteroides stercoris): 0.25 mg/L | MIC90 (Bacteroides stercoris): 4 mg/L | MIC50 (Odoribacter splanchnicus): 0.25 mg/L | MIC90 (Odoribacter splanchnicus): 4 mg/L | MIC50 (Prevotella sp.): 0.125 mg/L | MIC90 (Prevotella sp.): 0.25 mg/L | MIC50 [12]: 0.125 mg/L | MIC90 [12]: 0.25 mg/L | MIC50 [13]: ≤ 0.015 mg/L | MIC90 [13]: 0.03 mg/L | MIC50 (Porphyromonas gingivalis [14]): ≤ 0.015 mg/L | MIC90 (Porphyromonas gingivalis [14]): 0.03 mg/L | MIC50 (Fusobacterium nucleatum [15]): 0.03 mg/L | MIC90 (Fusobacterium nucleatum [15]): 0.125 mg/L | MIC50 [16]: 0.03 mg/L | MIC90 [16]: 0.125 mg/L | MIC50 (Fusobacterium varium [17]): 0.03 mg/L | MIC90 (Fusobacterium varium [17]): 0.125 mg/L | MIC50 (Fusobacterium sp.): 0.03 mg/L | MIC90 (Fusobacterium sp.): 0.125 mg/L | MIC50 [18]: 0.06 mg/L | MIC90 [18]: 0.125 mg/L | MIC50 (Finegoldia magna): 0.125 mg/L | MIC90 (Finegoldia magna): 0.125 mg/L | MIC50 (Parvimonas micra): 0.06 mg/L | MIC90 (Parvimonas micra): 0.125 mg/L | MIC50 [19]: 0.25 mg/L | MIC90 [19]: 2 mg/L | MIC50 [20]: ≤ 0.015 mg/L | MIC90 [20]: 0.125 mg/L | MIC50 (Eubacterium limosum): 0.5 mg/L | MIC90 (Eubacterium limosum): 1 mg/L | MIC [21]: ≤ 0.015 mg/L | MIC [22]: 0.5 mg/L | MIC (Gemella morbillorum): ≤ 0.015 mg/L | MIC [23]: 0.25 mg/L | MIC [24]: 0.25 mg/L | MIC (Clostridium perfringens): ≤ 0.015 mg/L | MIC (Thomasclavelia ramosa): 1 mg/L | MIC (Schaalia odontolytica): 0.5 mg/L | MIC [25]: 0.25 mg/L | MIC (Lactobacillus brevis): 0.5 mg/L | MIC [26]: 0.25 mg/L | MIC (Bacteroides fragilis [27]): 0.25 mg/L | MIC (Bacteroides fragilis [28]): 2 mg/L

Cc1ncc([N+](=O)[O-])n1CCO [METRONIDAZOLE]
MIC [1]: 1 mg/L | MIC (Bacteroides ovatus): 2 mg/L | MIC [2]: 2 mg/L | MIC [3]: 0.06 mg/L | MIC [4]: 1 mg/L | MIC (Hoylesella oralis): 0.125 mg/L | MIC (Porphyromonas gingivalis [5]): 0.03 mg/L | MIC (Fusobacterium nucleatum [6]): ≤ 0.015 mg/L | MIC (Fusobacterium varium [7]): 0.25 mg/L | MIC [8]: 0.25 mg/L | MIC [9]: 2 mg/L | MIC50 [10]: 0.5 mg/L | MIC90 [10]: 2 mg/L | MIC50 [11]: 0.5 mg/L | MIC90 [11]: 1 mg/L | MIC50 (Bacteroides uniformis): 0.5 mg/L | MIC90 (Bacteroides uniformis): 1 mg/L | MIC50 (Phocaeicola vulgatus): 0.5 mg/L | MIC90 (Phocaeicola vulgatus): 1 mg/L | MIC50 (Bacteroides caccae): 0.5 mg/L | MIC90 (Bacteroides caccae): 1 mg/L | MIC50 (Bacteroides stercoris): 0.5 mg/L | MIC90 (Bacteroides stercoris): 1 mg/L | MIC50 (Odoribacter splanchnicus): 0.5 mg/L | MIC90 (Odoribacter splanchnicus): 1 mg/L | MIC50 (Prevotella sp.): 1 mg/L | MIC90 (Prevotella sp.): 2 mg/L | MIC50 [12]: 1 mg/L | MIC90 [12]: 2 mg/L | MIC50 [13]: 0.06 mg/L | MIC90 [13]: 0.25 mg/L | MIC50 (Porphyromonas gingivalis [14]): 0.06 mg/L | MIC90 (Porphyromonas gingivalis [14]): 0.25 mg/L | MIC50 (Fusobacterium nucleatum [15]): ≤ 0.015 mg/L | MIC90 (Fusobacterium nucleatum [15]): 0.5 mg/L | MIC50 [16]: ≤ 0.015 mg/L | MIC90 [16]: 0.5 mg/L | MIC50 (Fusobacterium varium [17]): ≤ 0.015 mg/L | MIC90 (Fusobacterium varium [17]): 0.5 mg/L | MIC50 (Fusobacterium sp.): ≤ 0.015 mg/L | MIC90 (Fusobacterium sp.): 0.5 mg/L | MIC50 [18]: 0.125 mg/L | MIC90 [18]: 0.25 mg/L | MIC50 (Finegoldia magna): 0.5 mg/L | MIC90 (Finegoldia magna): 1 mg/L | MIC50 (Parvimonas micra): 0.5 mg/L | MIC90 (Parvimonas micra): 1 mg/L | MIC50 [19]: 0.125 mg/L | MIC90 [19]: 0.5 mg/L | MIC50 [20]: 1 mg/L | MIC90 [20]: 2 mg/L | MIC50 (Eubacterium limosum): 0.5 mg/L | MIC90 (Eubacterium limosum): 0.5 mg/L | MIC [21]: 1 mg/L | MIC [22]: 0.125 mg/L | MIC (Gemella morbillorum): > 128 mg/L | MIC [23]: > 128 mg/L | MIC [24]: ≤ 0.015 mg/L | MIC (Clostridium perfringens): 1 mg/L | MIC (Thomasclavelia ramosa): 2 mg/L | MIC (Schaalia odontolytica): 16 mg/L | MIC [25]: > 128 mg/L | MIC (Lactobacillus brevis): > 128 mg/L | MIC [26]: > 128 mg/L | MIC (Bacteroides fragilis [27]): 0.5 mg/L | MIC (Bacteroides fragilis [28]): 0.25 mg/L
